Where no end group is shown, it is not given here.
Key:
skin biopsies = experiment: Protective effect on morphology of skin biopsies during aging (hematoxyline/eosin histology); type: cell-based, human; details: 62 and 134 h culture, peptide diluted to 1% topically twice per day; untreated skin damaged
Protocol: A study of the protective effect of the peptide SEQ ID no.1 was carried out in parallel by evaluating the damage caused by aging at 62 hr and 134 hr by way of immunohistology by means of colouration of sectional cuts of skin.
Samples of human skin are placed in culture at the air/liquid interface. The peptide SEQ ID no.1 diluted to 1% (from a 10^−4M solution) is applied topically to these samples for 62 hr and 134 hr. The application is renewed twice per day during the period of the experiment. Untreated skin samples serve as a control during the experiment. The skin samples are fixed with 4% formaldehyde and enclosed in paraffin. Sectional cuts of 3 μm are made with a microtome. The tissues are coloured using hematoxyline (which colours the cell nuclei blue-black) and eosin, which is specific to the colouration of cytoplasms. The morphological structure of the biopsies is then assessed under transmission microscope.

Clock protein [1] = experiment: Western blot of Clock protein expression in cultured fibroblasts; type: cell-based; details: 16 hr, peptide diluted to 1% (from a 10^-4M solution), untreated control = 100%, Experiment 1
Protocol: (§1) A study of the activating effect of the peptide SEQ ID no.1 was carried out by evaluating the expression of the Clock protein by western blot in cultured fibroblasts and by immunohistochemistry by labeling the Clock protein by means of immunolabeling. The technique of western blotting is a semi-quantitative method which makes it possible to evaluate the level of Clock protein in dermal cells.
Cultured fibroblasts are cultivated in containers with a diameter of 100 mm at 37° C. in a humidified atmosphere containing 5% CO2 for 16 hr in the presence or absence of the peptide SEQ ID no.1, diluted to 1% (from a 10^−4M solution). The cells are rinsed and then removed from the support with the aid of an extraction buffer (20 mM TRIS, 150 mM NaCl, 10 mM EDTA, 0.2% triton […]) in the presence of a cocktail of protease inhibitors (Sigma). The proteins thus extracted are centrifuged at 4° C. at 10000 rpm, before being dosed by the BCA protein dosing kit (Pierce). The cellular lysates are mixed with a denaturing buffer and subjected to SDS-PAGE electrophoresis. The gel used is 4-12% Nupage (Invitrogen). The proteins are then transferred to a nitrocellulose membrane (Pal corporation). […] The quantitative evaluation of the proteins present in the cells was carried out using the chemiimager software (Alpha innotech Corporation USA).

Clock protein [2] = experiment: Ex vivo immunolabeling of Clock protein in skin biopsies aged artificially during culture; type: cell-based, human
Protocol: (§2) A study of the activating effect of the peptide SEQ ID no.1 was carried out by evaluating the expression of Clock and Per-1 proteins in skin models, aged artificially during culture. The analysis was carried out after 62 hr and 134 hr of culturing.
(§3) Ex vivo studies by immunolabeling have made it possible to evidence the expression of Clock and Per-1 proteins in skin samples aged during culture. Samples of human skin are cultured at the air/liquid interface for 62 hr and 134 hr. The peptide SEQ ID no.1 diluted to 1% (from a 10^−4M solution) is applied topically to these samples at a rate of two times per day during the period of the experiment.
(§4) Skin samples not treated with the peptide SEQ ID no.1 serve as a control. The skin samples are fixed with 10% formaldehyde and enclosed in paraffin. Sectional cuts of 3 μm are made with a microtome. The immunolabeling is carried out after removal of the paraffin and unmasking of the antigenic sites. The immunolabeling for the Clock protein is carried out by means of an antibody (ABcam) diluted 1/250 and a secondary antibody diluted 1/50 and coupled to a fluorochrome.
(§5) The slides are then mounted in a suitable medium and observed under epifluorescence microscope (Nikon Eclipse E600).

Clock protein [3] = experiment: Immunohistochemistry (immunolabeling) of Clock protein in cultured fibroblasts; type: cell-based; details: 18 hr, peptide diluted 1% (from a 10^-4M solution), versus untreated
Protocol: as §1
Cultured fibroblasts are cultivated in 8-well chambers (labteck) at 37° C. in a humidified atmosphere containing 5% CO2 for 18 hr in the presence or absence of the peptide SEQ ID no.1, diluted 1% (from a 10^−4M solution). Untreated cells are cultivated at the same time and serve as a control. On the day of labeling the cells are rinsed, fixed in a mixture (2% glutaraldehyde—2% formaldehyde) for 3 minutes and then rinsed. The primary antibody (ABcam), diluted 1/250 is applied for 1 hour and a secondary antibody, diluted 1/50 and coupled to a fluorochrome is applied for 1 hour. The cells are then mounted between a slide and cover glass in a suitable mounting medium and observed under epifluorescence microscope.

Per-1 protein [4] = experiment: Ex vivo immunolabeling of Per-1 protein in skin biopsies aged artificially during culture; type: cell-based, human; details: after 62 hr of treatment
Protocol: as §2, §3, §4
The immunolabeling for the Per-1 protein is carried out by a polyclonal antibody (Cosmobio) diluted 1/100 and a secondary antibody diluted 1/50 and coupled to a fluorochrome. […]

Clock protein [5] = experiment: Ex vivo immunolabeling of Clock protein in skin biopsies; type: cell-based; details: human skin ex vivo, peptide diluted to 1%, topical, 48 hr
Protocol: (§6) A study of the activating effect of the peptide SEQ ID no.1 was carried out by evaluating the expression of Clock and Per-1 proteins in skin biopsies ex vivo.
(§7) Ex vivo studies by immunolabeling have made it possible to evidence the expression of Clock and Per-1 proteins in skin samples. Samples of human skin are cultured at the air/liquid interface. The peptide SEQ ID no.1 diluted to 1% (from a 10^−4M solution) is applied topically to these samples for 48 hr at a rate of two times per 24 hr.
(§8) Skin samples not treated with the peptide SEQ ID no.1 serve as a control. The skin samples are fixed with 10% formaldehyde and enclosed in paraffin. Sectional cuts of 3 μm are then made with a microtome. The immunolabeling is carried out after removal of the paraffin and unmasking of the antigenic sites.
The immunolabeling for the Clock protein is carried out by means of an antibody (ABcam) diluted 1/250 and a secondary antibody diluted 1/50 and coupled to a fluorochrome.
as §5

Per-1 protein [6] = experiment: Ex vivo immunolabeling of Per-1 protein in skin biopsies; type: cell-based; details: human skin ex vivo, peptide diluted to 1%, topical, 48 hr
Protocol: as §6, §7, §8
The immunolabeling for the Per-1 protein is carried out by a polyclonal antibody (Cosmobio) diluted 1/100 and a secondary antibody diluted 1/50 and coupled to a fluorochrome.
as §5

Question: How did the “Morphological structure of skin biopsies / damage caused by aging” value (skin biopsies) turn out when “Ser-Pro-Leu-Gln-NH2 (SPLQ-NH2) [SEQ ID no.1]” was run?
Answer: well-preserved morphological structure

Question: What about the “Intensity (%) of Clock protein, western blot” value (Clock protein [1]) of the same substance?
Answer: 179%

Question: What about the “Labeling of the Clock protein compared to untreated control” value (Clock protein [2]; after 62 hr of culturing) of the same substance?
Answer: increased

Question: And the “Labeling of the Clock protein compared to untreated control skin” value (Clock protein [2]; after 134 hr)?
Answer: largely increased

Question: What about the “Expression of the Clock protein by labeling in fibroblasts” value (Clock protein [3]) of the same substance?
Answer: increase in the expression of the Clock protein

Question: And the “Expression of the PER-1 protein compared to untreated” value (Per-1 protein [4])?
Answer: increased

Question: And the “Amount of Clock protein compared with untreated skin” value (Clock protein [5])?
Answer: slightly greater

Question: What about the “Amount of Per-1 protein compared with untreated skin” value (Per-1 protein [6]) of the same substance?
Answer: greater

Reference: US8435950B2, “Anti-aging peptides and cosmetic and/or pharmaceutical composition containing same” (ISP Investments, priority 2009, dated 2013)
